Results reported in PubChem BioAssay AID1259407 (Chemical Carcinogenesis Research Information System (CCRIS), 2018).
Activity calls are given as the source filed them. No rule for the calls is given here.

Test system: CCRIS mutagenicity, Ames/micronucleus/aberration tests
Assay: CCRIS mutagenicity studies
[1] = Test System: AMES SALMONELLA TYPHIMURIUM, Strain/Indicator: TA98, Metabolic Activation: RAT, LIVER, S-9, AROCLOR 1254, Method: STANDARD PLATE
[2] = Test System: AMES SALMONELLA TYPHIMURIUM, Strain/Indicator: TA98, Metabolic Activation: NONE, Method: STANDARD PLATE
[3] = Test System: AMES SALMONELLA TYPHIMURIUM, Strain/Indicator: TA100, Metabolic Activation: NONE, Method: STANDARD PLATE
[4] = Test System: AMES SALMONELLA TYPHIMURIUM, Strain/Indicator: TA100, Metabolic Activation: RAT, LIVER, S-9, AROCLOR 1254, Method: STANDARD PLATE
[5] = Test System: AMES SALMONELLA TYPHIMURIUM, Strain/Indicator: TA1535, Metabolic Activation: NONE, Method: STANDARD PLATE
[6] = Test System: AMES SALMONELLA TYPHIMURIUM, Strain/Indicator: TA1535, Metabolic Activation: RAT, LIVER, S-9, AROCLOR 1254, Method: STANDARD PLATE
[7] = Test System: AMES SALMONELLA TYPHIMURIUM, Strain/Indicator: TA1537, Metabolic Activation: NONE, Method: STANDARD PLATE
[8] = Test System: AMES SALMONELLA TYPHIMURIUM, Strain/Indicator: TA1537, Metabolic Activation: RAT, LIVER, S-9, AROCLOR 1254, Method: STANDARD PLATE

CI
mutagenic call (Test System: AMES SALMONELLA TYPHIMURIUM, Strain/Indicator: TA98, Metabolic Activation: NONE, Method: GAS EXPOSURE): inactive; negative
mutagenic call (Test System: AMES SALMONELLA TYPHIMURIUM, Strain/Indicator: TA98, Metabolic Activation: RAT, LIVER, S-9, PHENOBARBITAL AND BETA--NAPHTHOFLAVONE, Method: GAS EXPOSURE): inactive; negative
mutagenic call (Test System: AMES SALMONELLA TYPHIMURIUM, Strain/Indicator: TA100, Metabolic Activation: NONE, Method: DESICCATOR): active; positive
mutagenic call (Test System: AMES SALMONELLA TYPHIMURIUM, Strain/Indicator: TA100, Metabolic Activation: NONE, Method: GAS EXPOSURE): active; positive
mutagenic call (Test System: AMES SALMONELLA TYPHIMURIUM, Strain/Indicator: TA100, Metabolic Activation: RAT, LIVER, S-9, PHENOBARBITAL AND BETA--NAPHTHOFLAVONE, Method: GAS EXPOSURE): active; positive
mutagenic call (Test System: AMES SALMONELLA TYPHIMURIUM, Strain/Indicator: TA1535, Metabolic Activation: NONE, Method: GAS EXPOSURE): inactive; negative
mutagenic call (Test System: AMES SALMONELLA TYPHIMURIUM, Strain/Indicator: TA1535, Metabolic Activation: RAT, LIVER, S-9, PHENOBARBITAL AND BETA--NAPHTHOFLAVONE, Method: GAS EXPOSURE): inactive; negative
mutagenic call (Test System: AMES SALMONELLA TYPHIMURIUM, Strain/Indicator: TA1535, Metabolic Activation: RAT, LIVER, S-9, Method: SPOT): active; positive
mutagenic call (Test System: AMES SALMONELLA TYPHIMURIUM, Strain/Indicator: TA1537, Metabolic Activation: NONE, Method: GAS EXPOSURE): inactive; negative
mutagenic call (Test System: AMES SALMONELLA TYPHIMURIUM, Strain/Indicator: TA1537, Metabolic Activation: RAT, LIVER, S-9, PHENOBARBITAL AND BETA--NAPHTHOFLAVONE, Method: GAS EXPOSURE): inactive; negative
mutagenic call (Test System: E. COLI, Strain/Indicator: WP2UVRA, Metabolic Activation: NONE, Method: GAS EXPOSURE): inactive; negative
mutagenic call (Test System: E. COLI, Strain/Indicator: WP2UVRA, Metabolic Activation: RAT, LIVER, S-9, PHENOBARBITAL AND BETA--NAPHTHOFLAVONE, Method: GAS EXPOSURE): inactive; negative
mutagenic call (Test System: MOUSE LYMPHOMA, Strain/Indicator: L5178Y (TK+/TK-), Metabolic Activation: NONE, Method: SUSPENSION/PLATE): active; positive
mutagenic call (Test System: MOUSE LYMPHOMA, Strain/Indicator: L5178Y (TK+/TK-), Metabolic Activation: RAT, LIVER, S-9, AROCLOR 1254, Method: SUSPENSION/PLATE): active; positive

Cc1cnc2c(C)c(C)c3c(nc(N)n3C)c2n1
mutagenic call [1]: active; positive

CCCCCCCCCc1ccccc1Oc1ccccc1CCCCCCCCC
mutagenic call (Test System: AMES SALMONELLA TYPHIMURIUM, Strain/Indicator: TA97, Metabolic Activation: NONE, Method: STANDARD PLATE): inactive; negative
mutagenic call (Test System: AMES SALMONELLA TYPHIMURIUM, Strain/Indicator: TA97, Metabolic Activation: S-9, Method: STANDARD PLATE): inactive; negative
mutagenic call [2]: inactive; negative
mutagenic call (Test System: AMES SALMONELLA TYPHIMURIUM, Strain/Indicator: TA98, Metabolic Activation: S-9, Method: STANDARD PLATE): inactive; negative
mutagenic call [3]: inactive; negative
mutagenic call (Test System: AMES SALMONELLA TYPHIMURIUM, Strain/Indicator: TA100, Metabolic Activation: S-9, Method: STANDARD PLATE): inactive; negative
mutagenic call (Test System: AMES SALMONELLA TYPHIMURIUM, Strain/Indicator: TA102, Metabolic Activation: NONE, Method: STANDARD PLATE): inactive; negative
mutagenic call (Test System: AMES SALMONELLA TYPHIMURIUM, Strain/Indicator: TA102, Metabolic Activation: S-9, Method: STANDARD PLATE): inactive; negative
mutagenic call (Test System: E.COLI, Strain/Indicator: WP2 (PKM101), Metabolic Activation: NONE, Method: STANDARD PLATE): inactive; negative
mutagenic call (Test System: E.COLI, Strain/Indicator: WP2 (PKM101), Metabolic Activation: S-9, Method: STANDARD PLATE): inactive; negative

C=C(C)C(=O)OCCCCCOC(=O)C(=C)C
mutagenic call [2]: inactive; negative
mutagenic call [1]: inactive; negative
mutagenic call (Test System: AMES SALMONELLA TYPHIMURIUM, Strain/Indicator: TA98, Metabolic Activation: RAT, LIVER, S-9, SODIUM PHENOBARBITAL, Method: STANDARD PLATE): inactive; negative
mutagenic call [3]: inactive; negative
mutagenic call [4]: inactive; negative
mutagenic call (Test System: AMES SALMONELLA TYPHIMURIUM, Strain/Indicator: TA100, Metabolic Activation: RAT, LIVER, S-9, SODIUM PHENOBARBITAL, Method: STANDARD PLATE): inactive; negative
mutagenic call [5]: inactive; negative
mutagenic call [6]: inactive; negative
mutagenic call (Test System: AMES SALMONELLA TYPHIMURIUM, Strain/Indicator: TA1535, Metabolic Activation: RAT, LIVER, S-9, SODIUM PHENOBARBITAL, Method: STANDARD PLATE): inactive; negative
mutagenic call [7]: inactive; negative
mutagenic call [8]: inactive; negative
mutagenic call (Test System: AMES SALMONELLA TYPHIMURIUM, Strain/Indicator: TA1537, Metabolic Activation: RAT, LIVER, S-9, SODIUM PHENOBARBITAL, Method: STANDARD PLATE): inactive; negative
mutagenic call (Test System: AMES SALMONELLA TYPHIMURIUM, Strain/Indicator: TA1538, Metabolic Activation: NONE, Method: STANDARD PLATE): inactive; negative
mutagenic call (Test System: AMES SALMONELLA TYPHIMURIUM, Strain/Indicator: TA1538, Metabolic Activation: RAT, LIVER, S-9, AROCLOR 1254, Method: STANDARD PLATE): inactive; negative
mutagenic call (Test System: AMES SALMONELLA TYPHIMURIUM, Strain/Indicator: TA1538, Metabolic Activation: RAT, LIVER, S-9, SODIUM PHENOBARBITAL, Method: STANDARD PLATE): inactive; negative

Cc1cc2cccc3ccc4c5ccccc5cc1c4c32
mutagenic call (Test System: AMES SALMONELLA TYPHIMURIUM, Strain/Indicator: TA100, Metabolic Activation: RAT, NADPH-FORTIFIED HOMOGENIZED HEPATOCYTES, AROCLOR 1254, Method: PREINCUBATION): active; positive

O=S(=O)(Nc1cccc(Cl)c1)c1cccc2cccnc12
mutagenic call [2]: inactive; negative
mutagenic call [1]: inactive; negative
mutagenic call [3]: inactive; negative
mutagenic call [4]: inactive; negative
mutagenic call [5]: inactive; negative
mutagenic call [6]: inactive; negative
mutagenic call [7]: inactive; negative
mutagenic call [8]: inactive; negative

Cc1cccc2nc3c(ccc4ccccc43)cc12
mutagenic call (Test System: AMES SALMONELLA TYPHIMURIUM, Strain/Indicator: TA97A, Metabolic Activation: NONE, Method: PREINCUBATION): active; positive
mutagenic call (Test System: AMES SALMONELLA TYPHIMURIUM, Strain/Indicator: TA98, Metabolic Activation: NONE, Method: PREINCUBATION): inactive; negative
mutagenic call (Test System: AMES SALMONELLA TYPHIMURIUM, Strain/Indicator: TA100, Metabolic Activation: NONE, Method: PREINCUBATION): inactive; negative
mutagenic call (Test System: AMES SALMONELLA TYPHIMURIUM, Strain/Indicator: TA102, Metabolic Activation: NONE, Method: PREINCUBATION): active; positive

Oc1ccc2c3cc4ccccc4cc3c3ccccc3c2c1O
mutagenic call (Test System: AMES SALMONELLA TYPHIMURIUM, Strain/Indicator: TA100, Metabolic Activation: RAT, LIVER, S-9, AROCLOR 1254, Method: PREINCUBATION): active; positive
